Reference: patent US20070128217A1 (priority 2003, published 2007)

Columns and labels:
[1] = tested on: rabbit serum obtained by immunizing a rabbit with the SARS-CoV strain Frankfurt 1; format: binding; set-up: Binding of a rabbit serum to linear peptides / Binding of a rabbit serum to looped peptides / Rabbit serum linear peptides / Rabbit serum looped peptides / Binding of a rabbit serum to linear peptides of protein N of SARS-CoV Urbani (Rabbit serum linear peptides) / Binding of a rabbit serum to looped/cyclic peptides of protein N of SARS-CoV Urbani (Rabbit serum looped peptides): unit not given here
[2] = tested on: recombinant human anti-SARS-CoV antibody 03-018; format: binding; set-up: Binding of antibody 03-018 to linear peptides of the N protein of SARS-CoV Urbani / Binding of antibody 03-018 to looped/cyclic peptides of the N protein of SARS-CoV Urbani: unit not given here
[3] = tested on: control sera (pooled serum of ten healthy LUMC hospital workers; commercial negative donor pooled serum from the Dutch bloodbank); format: binding, human; set-up: Binding of Control serum LUMC to linear peptides / Binding of Control serum Blood-bank to linear peptides / Binding of Control serum LUMC to looped peptides / Binding of Control Serum Blood-Bank to Looped peptides / Binding of Control serum LUMC to linear peptides of the protein M of SARS-CoV Urbani / Binding of Control serum Blood-bank to linear peptides of the protein M of SARS-CoV Urbani / Binding of Control serum LUMC to looped peptides of the protein M of SARS-CoV Urbani / Binding of Control Serum Blood-Bank to Looped peptides of the protein M of SARS-CoV Urbani: unit not given here
[4] = tested on: antibodies in sera from SARS patients (sera 1a, 1b, 2, 6, 37, 62, London, SARS-yellow, SARS-green); format: binding, human; set-up: Binding of serum 6 to linear peptides of protein X1 of SARS-CoV Urbani / Binding of serum 37 to linear peptides of protein X1 of SARS-CoV Urbani / Binding of serum 6 to looped/cyclic peptide (PEPSCAN-ELISA) / Binding of serum 37 to looped/cyclic peptide (PEPSCAN-ELISA) / Binding of serum 37 to looped/cyclic peptides of protein X1 of SARS-CoV Urbani / Binding of serum 6 to linear peptides of protein X2 / Binding of serum 37 to linear peptides of protein X2 / Binding of serum 37 to looped/cyclic peptides of protein X2 of SARS-CoV Urbani / Binding of serum 6 to linear peptides of protein M of SARS-CoV Urbani / Binding of serum 37 to linear peptides of protein M of SARS-CoV Urbani / Binding of serum 6 to looped/cyclic peptides of protein M of SARS-CoV Urbani / Binding of serum 37 to looped/cyclic peptides of protein M of SARS-CoV Urbani / Binding of serum 6 to linear peptides of protein X3 of SARS-CoV Urbani / Binding of serum 37 to linear peptides of protein X3 of SARS-CoV Urbani / Binding of serum 37 to looped/cyclic peptides of protein X3 of SARS-CoV Urbani / Binding of serum 6 to linear peptides of protein X4 of SARS-CoV Urbani / Binding of serum 37 to linear peptides of protein X4 of SARS-CoV Urbani / Binding of serum 37 to looped/cyclic peptides of protein X4 of SARS-CoV Urbani / Binding of serum 6 to linear peptides of protein X5 of SARS-CoV Urbani / Binding of serum 37 to linear peptides of protein X5 of SARS-CoV Urbani / Binding of serum 37 to looped/cyclic peptides of protein X5 of SARS-CoV Urbani / Binding of serum 6 to linear peptides of protein N of SARS-CoV Urbani / Binding of serum 37 to linear peptides of protein N of SARS-CoV Urbani / Binding of serum 6 to linear peptide (PEPSCAN-ELISA) / Binding of serum 1a to looped/cyclic peptides of protein N of SARS-CoV Urbani / Binding of serum 1b to looped/cyclic peptides of protein N of SARS-CoV Urbani / Binding of serum 2 to looped/cyclic peptides of protein N of SARS-CoV Urbani / Binding of serum 6 to looped/cyclic peptides of protein N of SARS-CoV Urbani / Binding of serum 37 to looped/cyclic peptides of protein N of SARS-CoV Urbani / Binding of serum 62 to looped/cyclic peptides of protein N of SARS-CoV Urbani / Binding of serum London to looped/cyclic peptides of protein N of SARS-CoV Urbani / Binding of serum SARS-green to looped/cyclic peptides of protein N of SARS-CoV Urbani: unit not given here

Sequence | Binding of a rabbit serum to linear peptides of protein N of SARS-CoV Urbani (Rabbit serum linear peptides) [1] | Binding of a rabbit serum to looped/cyclic peptides of protein N of SARS-CoV Urbani (Rabbit serum looped peptides) [1] | Binding of antibody 03-018 to linear peptides of the N protein of SARS-CoV Urbani [2] | Binding of antibody 03-018 to looped/cyclic peptides of the N protein of SARS-CoV Urbani [2] | Binding of serum 1a to looped/cyclic peptides of protein N of SARS-CoV Urbani [4] | Binding of serum 1b to looped/cyclic peptides of protein N of SARS-CoV Urbani [4] | Binding of serum 2 to looped/cyclic peptides of protein N of SARS-CoV Urbani [4] | Binding of serum 6 to looped/cyclic peptides of protein N of SARS-CoV Urbani [4] | Binding of serum 37 to looped/cyclic peptides of protein N of SARS-CoV Urbani [4] | Binding of serum 62 to looped/cyclic peptides of protein N of SARS-CoV Urbani [4] | Binding of serum London to looped/cyclic peptides of protein N of SARS-CoV Urbani [4] | Binding of serum SARS-green to looped/cyclic peptides of protein N of SARS-CoV Urbani [4] | Binding of serum SARS-yellow to looped/cyclic peptides of protein N of SARS-CoV Urbani [4] | Control Serum Blood-Bank Looped peptides [3] | Control serum Blood-bank linear peptides [3] | Control serum LUMC linear peptides [3] | Control serum LUMC looped peptides [3] | Binding of serum 1a to linear peptides of protein N of SARS-CoV Urbani [4] | Binding of serum 1b to linear peptides of protein N of SARS-CoV Urbani [4] | Binding of serum 2 to linear peptides of protein N of SARS-CoV Urbani [4] | other results
EGSRGGSQASSRSSS | 0.2 | 0.7 | 0.1 | 0.2 | 0.4 | 0.3 | 0.4 | 0.6 | 0.6 | 0.4 | 0.4 | 0.7 | 0.7 | – | – | – | – | – | – | – | Binding of Control Serum Blood-Bank to Looped peptides [3]: 0.7; Binding of Control serum Blood-bank to linear peptides [3]: 1.0; Binding of Control serum LUMC to linear peptides [3]: 1.0; Binding of Control serum LUMC to looped peptides [3]: 0.8; Binding of serum 1a to linear peptide (PEPSCAN-ELISA) [4]: 0.3; Binding of serum 1b to linear peptide (PEPSCAN-ELISA) [4]: 0.2; Binding of serum 2 to linear peptide (PEPSCAN-ELISA) [4]: 0.3; Binding of serum 6 to linear peptide (PEPSCAN-ELISA) [4]: 0.4; Binding of serum 37 to linear peptide (PEPSCAN-ELISA) [4]: 0.9; Binding of serum 62 to linear peptide (PEPSCAN-ELISA) [4]: 0.8; Binding of serum London to linear peptide (PEPSCAN-ELISA) [4]: 0.5; Binding of serum SARS-green to linear peptide (PEPSCAN-ELISA) [4]: 0.6; Binding of serum SARS-yellow to linear peptide (PEPSCAN-ELISA) [4]: 0.6
EVTPSGTWLTYHGAI | 0.1 | 0.3 | 0.1 | 0.2 | 0.4 | 0.3 | 0.5 | 0.3 | 0.8 | 0.9 | 0.5 | 0.7 | 0.4 | 0.8 | 0.7 | 0.6 | 0.7 | 0.2 | 0.1 | 0.1 | Binding of serum 6 to linear peptides of protein N of SARS-CoV Urbani [4]: 0.2; Binding of serum 37 to linear peptides of protein N of SARS-CoV Urbani [4]: 0.7; Binding of serum 62 to linear peptides of protein N of SARS-CoV Urbani [4]: 0.5; Binding of serum London to linear peptides of protein N of SARS-CoV Urbani [4]: 0.4; Binding of serum SARS-green to linear peptides of protein N of SARS-CoV Urbani [4]: 0.1; Binding of serum SARS-yellow to linear peptides of protein N of SARS-CoV Urbani [4]: 0.5
FAPSASAFFGMSRIG | 0.0 | 0.3 | 0.1 | 0.2 | 0.3 | 0.1 | 0.4 | 0.3 | 0.5 | 0.4 | 0.9 | 0.0 | 0.5 | 0.4 | 0.5 | 0.6 | 0.4 | 0.2 | 0.1 | 0.2 | Binding of serum 6 to linear peptides of protein N of SARS-CoV Urbani [4]: 0.1; Binding of serum 37 to linear peptides of protein N of SARS-CoV Urbani [4]: 0.6; Binding of serum 62 to linear peptides of protein N of SARS-CoV Urbani [4]: 0.5; Binding of serum London to linear peptides of protein N of SARS-CoV Urbani [4]: 0.4; Binding of serum SARS-green to linear peptides of protein N of SARS-CoV Urbani [4]: 0.4; Binding of serum SARS-yellow to linear peptides of protein N of SARS-CoV Urbani [4]: 0.5
